Test results as given in patent US12404332B2, “Methods for diagnosing and treating cancers” (Research Development Foundation, priority 2020, dated 2025).

System: PD-L1 in OVCAR5 cells
Assay: PD-L1 mRNA, protein and ubiquitination in OVCAR5 cells
Format: cell-based, human
Procedure: FIGS. 39A-C: CAMB reduces PD-L1 through ubiquitination. FIG. 39A, RT-qPCR for PD-L1 mRNA in OVCAR5 and ID8agg cells treated with (+) or without (−) chlorambucil for 48 hours. (n=4). FIG. 39B, Western blot for PD-L1 protein in OVCAR5 cells with (+) or without (−) MG132 for 6 or 20 hours. (upper panel). PD-L1 expression in OVCAR5 cells treated with chlorambucil 48 hours and/or MG132 for 6 hours (lower panel). FIG. 39C, Ubiquitinated PD-L1 was immunoprecipitated (IP) and subjected to Western blot analysis with anti-ubiquitin (Ub) antibody. Cells were treated with chlorambucil for indicated times prior to ubiquitination analysis.
Western blotting and immunoprecipitation: To prepare whole cell lysates, cells were harvested and lysed in RIPA (radioimmunoprecipitation assay) buffer plus 1 mM phenylmethylsulphonyl fluoride and Halt protease/phosphatase inhibitor cocktail (Thermo Scientific) at 4° C. Protein concentrations were measured by BCA Protein Assay Kit (Thermo Scientific). Protein was run on precast 4-15% sodium dodecyl sulfate polyacrylamide gels (Bio-Rad), transferred to polyvinylidene fluoride membranes (GE Water and Process Technologies), and then blocked in 5% non-fat milk for 1 hour at room temperature. The membranes were then incubated with 1:1000 diluted primary antibodies against indicated proteins (Cell Signaling). Specific antibody binding was detected by chemiluminescence using Western Lightening Plus regent (Perkin Elmer). Cells for (co) immunoprecipitation experiments were seeded in 15-cm dishes and cultured as described, using 6 million cells per immunoprecipitation reaction. For protein ubiquitination, cells were lysed in denaturing buffer (50 mM Tris-HCl, 0.5 mM EDTA and 1% SDS) followed by heating at 95° C. for 10 minutes and then quenched with 9 volumes of quenching buffer (0.5% Triton X-100, 20 mM Tris-HCl (pH 8.0), 137 mM NaCl, 10% glycerol, 2 mM EDTA). Protease inhibitor cocktail (Roche) was added fresh to all buffers. Cell lysates were incubated on a rotator for 30 minutes at 4° C., and then centrifuged at 20,000 g for 15 minutes at 4° C. Supernatants were subsequently incubated with anti-PD-L1 antibody overnight and processed using Dynabeads Protein G for Immunoprecipitation (Thermo Fisher Scientific). The final eluate was processed and Western blotting was performed.
Quantitative Real-Time Reverse Transcriptase Polymerase Chain Reaction: Total RNA was isolated from homogenized whole lung tissue with Trizol reagent (Invitrogen) according to manufacturer instructions. […] Quantitative PCR (qPCR) was conducted using the Bio-Rad Real-Time PCR System (Applied Biosystems), amplified with transcript-specific primers with SYBR Green (Thermo Scientific), according to manufacturer instructions. […]

`O=C(O)CCCc1ccc(N(CCCl)CCCl)cc1` [chlorambucil] was tested, and the “amount of ubiquitinated PD-L1” value (Co-IP) was “increased” and the “PD-L1 mRNA” value (OVCAR5 cells) was “little changed”.
